Experimental data published in a melting point compilation (Tetko et al.; mined from patent text by program, amines drawn as free bases though some values may be those of a salt).

Row | melting point | Structure (SMILES)
1 | 184 to 186 °C | CCCc1nc2c(N)nc3ccccc3c2n1CCCC1(C)OCCO1
2 | 183 to 184 °C | O=c1[nH]c(=O)n(CCCCl)c2ccccc12
3 | 35 to 38 °C | Cc1ccc(S(=O)(=O)NCCOCCO)cc1
4 | 183 to 185 °C | COc1ccc(C(=O)Nc2c(Cl)cncc2Cl)cc1OC1COCC1O (stereo unspecified)
5 | 237 °C | CS(=O)(=O)c1ccc(C2=C(c3ccc(-c4cscn4)cc3)C(=O)OC2)cc1
6 | 57 to 59 °C | COC(=O)c1ccc(SC)cc1N
7 | 185 to 187 °C | Nc1ncc(CN2CCN(c3ccccc3)CC2)c2nc(-c3ccco3)nn12
8 | 49 to 51 °C | CCc1cc(CC)c(N)cc1N
9 | 167 to 168 °C | COc1cc(OC)c(-c2cccs2)cc1/C=C/C(=O)c1ccc(S(=O)(=O)NCC(F)(F)F)cc1
10 | 125 to 126 °C | Oc1ccc(Br)cc1CNc1cc(Cl)cc(Cl)c1
11 | 262 °C | CCOC(=O)C1=C(N)NC2=C(C(=O)CCC2)C1c1cccc(C#N)c1 (stereo unspecified)
12 | 217 °C | O=C(C(c1ccc(Cl)cc1)c1c(Cl)cc(-n2ncc(=O)[nH]c2=O)cc1Cl)N1CCCCC1 (stereo unspecified)
13 | 182 to 183 °C | CCCCCCCCc1ccc(OCC(=O)Cn2cc(C(=O)O)c3ccccc32)cc1
14 | 116 to 117 °C | CCCC[C@H](NC(=O)[C@H](CC(C)C)NC(=O)c1c(F)ccc(F)c1F)C(=O)CSCc1ccco1
15 | 225 to 228 °C | CCCCC(CCC)c1ccc2[nH]c3cnc(C(=O)OCC)c(C)c3c2c1 (stereo unspecified)
16 | 114 to 116 °C | NC(=O)COC(=O)c1c(Cl)cccc1Cl
17 | 82 °C | OC1Cc2ccccc2C1N1CCCCC1 (stereo unspecified)
18 | 115 to 118 °C | CC(N)=CC(=O)CS(=O)(=O)N(C)Cc1ccccc1
19 | 83 to 84 °C | O=C(N[C@H](Cc1ccc(C(F)(F)F)cc1)[C@@H](O)c1ccc(F)cc1)c1cccc2cccnc12 (racemic)
20 | 139 to 141 °C | CCC(C)C(NC(=O)OC)C(=O)NN(Cc1ccc(-c2cncs2)cc1)CC(O)C(Cc1ccccc1)NC(=O)C(NC(=O)OC)C(C)(C)C (stereo unspecified)

Row | melting point | Structure (SMILES)
21 | 135 to 137 °C | CC(C)(C)n1c(=O)c2c(-c3ccc(F)cc3)ncn2c2ccccc21
22 | 110 to 111 °C | Cc1nc(C)c(CN2CCN(C)CC2)c(-c2ccccc2OCc2ccc(Cl)cc2)n1
23 | 275 to 277 °C | CC1C(=O)OC2=C(CSc3ccccc32)C1=O (stereo unspecified)
24 | 98 to 99 °C | COC(OC)C(C)(O)c1cnc(C=O)s1 (stereo unspecified)
25 | 182 to 188 °C | O=C(N1CCc2cc(O)c(O)cc2C(c2ccccc2)C1)C(F)(F)F (stereo unspecified)
26 | 126 to 128 °C | CCCCCS(=O)(=O)NC(=O)/C=C/c1ccc(OCC2CCCO2)cc1Oc1ncc(C(F)(F)F)cc1Cl (stereo unspecified)
27 | 134 to 138 °C | CCOC(=O)c1cc(C(O)CBr)c(=O)[nH]c1C(=O)OCC (stereo unspecified)
28 | 202 to 203 °C | O=C(N[C@@H]1CCc2cccc(N3CCNCC3)c2C1)c1ccc(N2CCOCC2)cc1
29 | 59 °C | CCOC1(c2nc3ccccc3s2)C=CC(=O)C=C1
30 | 262 to 264 °C | N#Cc1cc(N)c(N)cc1C#N
31 | 136 °C | COc1ccc(C(=O)CCCN2CCC(OC(=O)c3cc(Cl)c(N)c4c3OCC4)CC2)cc1
32 | 108 to 109 °C | CCCc1c(OCCCCCCc2ccc(CCCCC(=O)O)c(CCC(=O)O)c2)ccc2c1OCCC2=O
33 | 95 °C | O=C1C=CC(c2cccc(F)c2)(c2cccc(F)c2)CC1
34 | 62 to 63 °C | CC(C)c1csc(/C=C/c2cccc(N)c2)n1
35 | 54.5 to 55 °C | COC(=O)c1cc(Cl)ccc1OCc1ccccc1
36 | 210 °C | CC(C)(C)c1cc(/C=C(\C#N)C(N)=S)cc(C(C)(C)C)c1O
37 | 181 to 184 °C | CCc1cc(Nc2ccc(Sc3ccc(O)cc3)cc2)nc(N)n1
38 | 221 to 222 °C | Cc1c(F)c(F)c(F)c2c1c(=O)c(C(=O)O)cn2-c1cccs1
39 | 70 to 72 °C | CCCCC=Cc1cc2ccccc2[nH]1
40 | 165 to 167 °C | COCCOc1ccc(/C=C/C(=O)NS(=O)(=O)c2cccnc2)c(Oc2ncc(C(F)(F)F)cc2Cl)c1

Row | Structure (SMILES) | melting point
41 | Cc1ncnn1-c1ccc(C#N)c(F)c1 | 89 to 90 °C
